From patent US9708334B2, “Substituted 2,4,5,6-tetrahydropyrrolo[3,4-c]pyrazole and 4,5,6,7-tetrahydro-2H-pyrazolo[4,3-c]pyridine compounds as GlyT1 inhibitors” (DART NEUROSCIENCE (CAYMAN) LTD., priority 2014, dated 2017)

Molecular target: T1, GlyT1 (Homo sapiens, UniProt P48067)
T1 construct: expressed in transfected cells
T1 sequence (P48067 1-706): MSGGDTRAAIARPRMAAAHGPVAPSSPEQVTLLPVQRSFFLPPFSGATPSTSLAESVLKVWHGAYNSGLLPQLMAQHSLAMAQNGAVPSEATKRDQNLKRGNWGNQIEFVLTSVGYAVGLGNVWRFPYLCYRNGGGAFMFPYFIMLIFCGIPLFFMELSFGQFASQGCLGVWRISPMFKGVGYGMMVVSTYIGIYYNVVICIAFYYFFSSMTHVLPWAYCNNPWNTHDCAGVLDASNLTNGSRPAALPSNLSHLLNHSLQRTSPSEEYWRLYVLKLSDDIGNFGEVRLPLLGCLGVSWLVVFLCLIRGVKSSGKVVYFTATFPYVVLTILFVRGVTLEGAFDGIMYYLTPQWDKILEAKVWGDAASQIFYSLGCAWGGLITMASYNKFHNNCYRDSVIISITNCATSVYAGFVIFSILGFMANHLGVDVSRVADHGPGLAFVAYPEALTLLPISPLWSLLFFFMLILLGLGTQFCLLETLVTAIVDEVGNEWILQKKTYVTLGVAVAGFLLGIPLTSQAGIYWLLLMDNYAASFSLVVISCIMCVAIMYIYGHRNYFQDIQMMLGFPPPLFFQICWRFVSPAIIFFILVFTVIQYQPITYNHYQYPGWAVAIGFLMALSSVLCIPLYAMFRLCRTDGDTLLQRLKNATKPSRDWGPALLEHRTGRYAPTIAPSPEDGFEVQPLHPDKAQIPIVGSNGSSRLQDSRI
Experiment: Glycine Transporter 1 (GlyT1) uptake assay, scintillation proximity assay of [14C]-glycine uptake
Type: cell-based
Details: SPA, four parameter logistic fit, read-out: GlyT1 (pIC50) (converted)
Summary of the method: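 IC50 values derive from four-parameter logistic curves fitted to dose-response data. Uptake of [14C]-glycine measured in scintillation proximity format.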

With CC(C)Cn1cc2c(n1)CN(C(=O)c1cc(C#N)ccc1O[C@@H](C)C(F)(F)F)C2 [Example 386, 3-[2-(2-Methylpropyl)-2H 4H 5H 6H-pyrrolo[3,4-c]pyrazole-5-carbonyl]-4-{[(2S)-1 1 1-trifluoropropan-2-yl]oxy}benzonitrile] the IC50 was 100 to 1000 nM.

CC(C)Cn1ncc2c1CN(C(=O)c1cc(C#N)ccc1O[C@@H](C)C(F)(F)F)C2 [Example 387, 3-[1-(2-Methylpropyl)-1H 4H 5H 6H-pyrrolo[3,4-c]pyrazole-5-carbonyl]-4-{[(2S)-1 1 1-trifluoropropan-2-yl]oxy}benzonitrile] gave an IC50 greater than 10000 nM.

C[C@H](Oc1ccc(C#N)cc1C(=O)N1Cc2cnn(C3CCCC3)c2C1)C(F)(F)F [Example 388, 3-{1-Cyclopentyl-1H 4H 5H 6H-pyrrolo[3,4-c]pyrazole-5-carbonyl}-4-{[(2 S)-1 1 1-trifluoropropan-2-yl]oxy}benzonitrile] gave an IC50 of 1000 to 10000 nM.

With C[C@H](Oc1ccc(C#N)cc1C(=O)N1Cc2cn(C3CCCC3)nc2C1)C(F)(F)F [Example 389, 3-{2-Cyclopentyl-2H 4H 5H 6H-pyrrolo[3,4-c]pyrazole-5-carbonyl}-4-{[(2S)-1 1 1-trifluoropropan-2-yl]oxy}benzonitrile] the IC50 was 100 to 1000 nM.

CC(C)Oc1ccc(C#N)cc1C(=O)N1Cc2cn(-c3ccc(F)cc3F)nc2C1 [Example 390, 3-[2-(2 4-Difluorophenyl)-2H 4H 5H 6H-pyrrolo[3,4-c]pyrazole-5-carbonyl]-4-(propan-2-yloxy)benzonitrile] gave an IC50 of 100 to 1000 nM.

In the case of C[C@H](Oc1ccc(C#N)cc1C(=O)N1Cc2cn(-c3ccc(F)cc3F)nc2C1)C(F)(F)F [Example 391, 3-[2-(2 4-Difluorophenyl)-2H 4H 5H 6H-pyrrolo[3,4-c]pyrazole-5-carbonyl]-4-{[(2S)-1 1 1-trifluoropropan-2-yl]oxy}benzonitrile], the IC50 is reported as 100 to 1000 nM.

With COCCCn1ncc2c1CN(C(=O)c1cc(C#N)ccc1O[C@@H](C)C(F)(F)F)C2 [Example 392, 3-[1-(3-Methoxypropyl)-1H 4H 5H 6H-pyrrolo[3,4-c]pyrazole-5-carbonyl]-4-{[(2S)-1 1 1-trifluoropropan-2-yl]oxy}benzonitrile] the IC50 was greater than 10000 nM.

For COCCCn1cc2c(n1)CN(C(=O)c1cc(C#N)ccc1O[C@@H](C)C(F)(F)F)C2 [Example 393, 3-[2-(3-Methoxypropyl)-2H 4H 5H 6H-pyrrolo[3,4-c]pyrazole-5-carbonyl]-4-{[(2S)-1 1 1-trifluoropropan-2-yl]oxy}benzonitrile], the IC50 was 100 to 1000 nM.

Compound C[C@H](Oc1ccc(C#N)cc1C(=O)N1Cc2cnn(CC3CCOCC3)c2C1)C(F)(F)F [Example 394, 3-[1-(Oxan-4-ylmethyl)-1H 4H 5H 6H-pyrrolo[3,4-c]pyrazole-5-carbonyl]-4-{[(2S)-1 1 1-trifluoropropan-2-yl]oxy}benzonitrile] has an IC50 of 1000 to 10000 nM.

Cc1cccc(-n2cc3c(n2)CN(C(=O)c2cc(C#N)ccc2O[C@@H](C)C(F)(F)F)C3)c1F [Example 395] was tested, and the IC50 was 100 to 1000 nM.

In the case of C[C@H](Oc1ccc(C#N)cc1C(=O)N1Cc2cn(CC3CCOCC3)nc2C1)C(F)(F)F [Example 396, 3-[2-(Oxan-4-ylmethyl)-2H 4H 5H 6H-pyrrolo[3,4-c]pyrazole-5-carbonyl]-4-{[(2S)-1 1 1-trifluoropropan-2-yl]oxy}benzonitrile], the IC50 is reported as 100 to 1000 nM.

C[C@H](Oc1ccc(C#N)cc1C(=O)N1Cc2cn(-c3ccccc3F)nc2C1)C(F)(F)F [Example 397, 3-[2-(2-Fluorophenyl)-2H 4H 5H 6H-pyrrolo[3,4-c]pyrazole-5-carbonyl]-4-{[(2S)-1 1 1-trifluoropropan-2-yl]oxy}benzonitrile] gave an IC50 of less than 100 nM.

Compound C[C@H](Oc1ccc(S(C)(=O)=O)cc1C(=O)N1Cc2cn(Cc3ccccc3)nc2C1)C(F)(F)F [Example 398, 2-Benzyl-5-(5-methanesulfonyl-2-{[(2S)-1 1 1-trifluoropropan-2-yl]oxy}benzoyl)-2H 4H 5H 6H-pyrrolo[3,4-c]pyrazole] has an IC50 of less than 100 nM.

Work on CC(C)Cn1cc2c(n1)CN(C(=O)c1cc(S(C)(=O)=O)ccc1O[C@@H](C)C(F)(F)F)C2 [Example 399, 5-(5-Methanesulfonyl-2-{[(2S)-1 1 1-trifluoropropan-2-yl]oxy}benzoyl)-2-(2-methylpropyl)-2H 4H 5H 6H-pyrrolo[3,4-c]pyrazole] yielded an IC50 of less than 100 nM.

For CC(C)Cn1cc2c(n1)CN(C(=O)c1cc(S(C)(=O)=O)ccc1OC(C)C)C2 [Example 400, 5-[5-Methanesulfonyl-2-(propan-2-yloxy)benzoyl]-2-(2-methylpropyl)-2H 4H 5H 6H-pyrrolo[3,4-c]pyrazole], the IC50 was less than 100 nM.

Compound C[C@H](Oc1ccc(C#N)cc1C(=O)N1Cc2cn(CC3CCC3)nc2C1)C(F)(F)F [Example 401, 3-[2-(Cyclobutylmethyl)-2H 4H 5H 6H-pyrrolo[3,4-c]pyrazole-5-carbonyl]-4-{[(2S)-1 1 1-trifluoropropan-2-yl]oxy}benzonitrile] has an IC50 of 100 to 1000 nM.

Compound C[C@H](Oc1ccc(C#N)cc1C(=O)N1Cc2cn(C3CCCCC3)nc2C1)C(F)(F)F [Example 402, 3-{2-Cyclohexyl-2H 4H 5H 6H-pyrrolo[3,4-c]pyrazole-5-carbonyl}-4-{[(2S)-1 1 1-trifluoropropan-2-yl]oxy}benzonitrile] has an IC50 of 100 to 1000 nM.

In the case of CC(C)Oc1ccc(S(C)(=O)=O)cc1C(=O)N1Cc2cn(C3CCCCC3)nc2C1 [Example 403, 2-Cyclohexyl-5-[5-methanesulfonyl-2-(propan-2-yloxy)benzoyl]-2H 4H 5H 6H-pyrrolo[3,4-c]pyrazole], the IC50 is reported as less than 100 nM.

In the case of C[C@H](Oc1ccc(C#N)cc1C(=O)N1Cc2cn(-c3ccnc(C4CC4)c3)nc2C1)C(F)(F)F [Example 404, 3-[2-(2-Cyclopropylpyridin-4-yl)-2H 4H 5H 6H-pyrrolo[3,4-c]pyrazole-5-carbonyl]-4-{[(2S)-1 1 1-trifluoropropan-2-yl]oxy}benzonitrile], the IC50 is reported as less than 100 nM.

With CC(C)Oc1ccc(C#N)cc1C(=O)N1Cc2cn(-c3ccnc(C4CC4)c3)nc2C1 [Example 405, 3-[2-(2-Cyclopropylpyridin-4-yl)-2H 4H 5H 6H-pyrrolo[3,4-c]pyrazole-5-carbonyl]-4-(propan-2-yloxy)benzonitrile] the IC50 was less than 100 nM.

Compound CC(C)Oc1ccc(S(C)(=O)=O)cc1C(=O)N1Cc2cn(C3CCCC3)nc2C1 [Example 406, 2-Cyclopentyl-5-[5-methanesulfonyl-2-(propan-2-yloxy)benzoyl]-2H 4H 5H 6H-pyrrolo[3,4-c]pyrazole] has an IC50 of less than 100 nM.

With CC(C)Oc1ccc(C#N)cc1C(=O)N1Cc2cn(C3CCOCC3)nc2C1 [Example 408, 3-[2-(Oxan-4-yl)-2H 4H 5H 6H-pyrrolo[3,4-c]pyrazole-5-carbonyl]-4-(propan-2-yloxy)benzonitrile] the IC50 was 100 to 1000 nM.

C[C@H](Oc1ccc(S(C)(=O)=O)cc1C(=O)N1Cc2cn(CC3CCC3)nc2C1)C(F)(F)F [Example 409] showed an IC50 of less than 100 nM.

Work on CC(C)Oc1ccc(S(C)(=O)=O)cc1C(=O)N1Cc2cn(CC3CCC3)nc2C1 [Example 410, 2-(Cyclobutylmethyl)-5-[5-methanesulfonyl-2-(propan-2-yloxy)benzoyl]-2H 4H 5H 6H-pyrrolo[3,4-c]pyrazole] yielded an IC50 of less than 100 nM.

In the case of CC(C)Oc1ccc(C#N)cc1C(=O)N1Cc2cn(CC3CCC3)nc2C1 [Example 411, 3-[2-(Cyclobutylmethyl)-2H 4H 5H 6H-pyrrolo[3,4-c]pyrazole-5-carbonyl]-4-(propan-2-yloxy)benzonitrile], the IC50 is reported as 100 to 1000 nM.

For C[C@H](Oc1ccc(C#N)cc1C(=O)N1Cc2cn(C3CCOCC3)nc2C1)C(F)(F)F [Example 412, 3-[2-(Oxan-4-yl)-2H 4H 5H 6H-pyrrolo[3,4-c]pyrazole-5-carbonyl]-4-{[(2S)-1 1 1-trifluoropropan-2-yl]oxy}benzonitrile], the IC50 was less than 100 nM.

For C[C@H](Oc1ccc(S(C)(=O)=O)cc1C(=O)N1Cc2cn(CC3CCCC3)nc2C1)C(F)(F)F [Example 413, 2-(Cyclopentylmethyl)-5-(5-methanesulfonyl-2-{[(2S)-1 1 1-trifluoropropan-2-yl]oxy}benzoyl)-2H 4H 5H 6H-pyrrolo[3,4-c]pyrazole], the IC50 was less than 100 nM.

C[C@H](Oc1ccc(C#N)cc1C(=O)N1Cc2cn(CC3CCCC3)nc2C1)C(F)(F)F [Example 414, 3-[2-(Cyclopentylmethyl)-2H 4H 5H 6H-pyrrolo[3,4-c]pyrazole-5-carbonyl]-4-{[(2S)-1 1 1-trifluoropropan-2-yl]oxy}benzonitrile] was tested, and the IC50 was 100 to 1000 nM.

Compound CCS(=O)(=O)c1ccc(OC(C)C)c(C(=O)N2Cc3cn(C4CCCC4)nc3C2)c1 [Example 415, 2-Cyclopentyl-5-[5-(ethanesulfonyl)-2-(propan-2-yloxy)benzoyl]-2H 4H 5H 6H-pyrrolo[3,4-c]pyrazole] has an IC50 of less than 100 nM.

For CC[C@H](C)Cn1cc2c(n1)CN(C(=O)c1cc(C#N)ccc1OC(C)C)C2 [Example 416, 3-{2-[(2S)-2-Methylbutyl]-2H 4H 5H 6H-pyrrolo[3,4-c]pyrazole-5-carbonyl}-4-(propan-2-yloxy)benzonitrile], the IC50 was 100 to 1000 nM.
